Patent US12558302B2, “Tyrosinase-inhibiting molecules and dermopharmaceutical composition that includes them” (MESOESTETIC PHARMA GROUP, S.L, priority 2021, dated 2026)
Values joined by “and” are separate entries in the source; they are usually repeats but may differ in a detail not shown here. Equal values may be shown once.

Assays:
tyrosinase = molecular target: T1, tyrosinase (Homo sapiens, UniProt P14679); assay: tyrosinase activity in lysate of L-tyrosine-stimulated human melanocytes (L-DOPA/MBTH); format: biochemical; details: L-tyrosine-stimulated control = 100%
T1 construct: the cells were trypsinised and lysated in PBS pH 7.0 with 1% Triton X-100; host or cells: human melanocytes (primary), stimulated with 2 mM L-tyrosine; Triton X-100 lysate
T1 sequence (P14679 19-529): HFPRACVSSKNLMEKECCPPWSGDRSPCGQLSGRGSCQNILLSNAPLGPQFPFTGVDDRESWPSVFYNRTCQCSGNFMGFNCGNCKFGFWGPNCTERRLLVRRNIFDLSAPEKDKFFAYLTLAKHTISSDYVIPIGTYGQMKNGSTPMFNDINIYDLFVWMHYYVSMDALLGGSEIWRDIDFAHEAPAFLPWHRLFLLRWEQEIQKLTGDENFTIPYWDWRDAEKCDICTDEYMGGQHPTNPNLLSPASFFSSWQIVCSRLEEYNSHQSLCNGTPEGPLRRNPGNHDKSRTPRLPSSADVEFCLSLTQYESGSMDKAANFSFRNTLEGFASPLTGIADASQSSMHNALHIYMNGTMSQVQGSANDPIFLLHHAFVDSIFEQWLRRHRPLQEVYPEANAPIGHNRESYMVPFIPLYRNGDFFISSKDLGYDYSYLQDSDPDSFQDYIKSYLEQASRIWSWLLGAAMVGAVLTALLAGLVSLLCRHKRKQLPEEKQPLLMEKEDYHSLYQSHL
Method: Given the results, an in vitro assay was conducted on human melanocytes. In order to stimulate melanogenic activity in the cells they were treated with L-tyrosine. This compound, in addition to being a substrate of the tyrosinase enzyme, key to melanin synthesis, is capable of activating cell receptors that activate the melanogenesis-regulating signalling pathways (Slominski A, et al. L-tyrosine and L-dihydroxyphenylalanine as hormone-like regulators of melanocyte functions. Pigment Cell Melanoma Res. 2012; 25(1):14-27). This condition is aimed at stimulating melanogenesis in melanocytes for the purpose of extracting tyrosinase and testing the effect of the molecules of the invention.
Thus, human melanocytes were cultured in culture medium (#PCS-200-013, ATCC) and L-tyrosine (2 mM) for 3 days. After the stimulation treatment, the cells were trypsinised and lysated in PBS pH 7.0 with 1% Triton X-100. The cell lysate, which contains tyrosinase, was incubated together with the molecules of the invention at different concentrations (0.1 and 1 mM), L-DOPA and MBTH (Winder A J and Harris H. New assays for the tyrosine hydroxylase and dopa oxidase activities of tyrosinase. Eur. J. Biochem. 1991; 198(2):317-26). L-DOPA acts as a substrate for tyrosinase in the enzyme reaction and MBTH is a compound that bonds to the […] formed from the oxidation of L-DOPA, generating a colour complex. Each of the conditions used was prepared in triplicate. Lastly, absorbance at 492 nm was monitored using a spectrophotometer every 10 min for 2-5 h.

[1] = water solubility compared to DMSO by HPLC; format: physicochemical; details: 50 mg/ml; for Percentage of water solubility compared to the samples dissolved in DMSO: 1 hour stirring at room temperature, filtered, HPLC
Method: Solutions are prepared in DMSO and in water for each of the molecules. All the samples are prepared at a final concentration of 50 mg/ml. After stirring for 1 hour at room temperature, the samples are filtered and a HPLC is performed.
In order to calculate the percentage of solubility of each of the molecules, the area of the peak of the sample dissolved in water and in DMSO obtained by HPLC is determined. The results are given as a percentage of solubility of the compound dissolved in water in the compound dissolved in DMSO.

human melanocytes = assay: melanin content in L-tyrosine-stimulated human melanocytes; format: cell-based; details: 3 days, L-tyrosine 2 mM, stimulated control = 100%
Method: (§1) With the aim of studying the inhibition of molecules in melanin, an in vitro assay was conducted on human melanocytes using similar conditions to those described in the tyrosinase inhibition assay. L-tyrosine is used to stimulate melanogenic activity in cells with the aim of extracting the melanin. Here, only the molecules with the best tyrosinase-inhibiting activity were tested (formulas (II) and (III)). In this experiment, the concentration of molecules used is the highest possible taking into account the melanocyte cytotoxicity value, 1.25 mM for the molecule of formula (II) and 0.33 mM for the molecule of formula (III).
Thus, human melanocytes are cultured in culture medium (#PCS-200-013, ATCC). L-tyrosine (2 mM) was added together with the molecule treatment. All the conditions were prepared in triplicate. After incubating the cells with the treatments for 3 days, they were trypsinised and lysated in 1M NaOH. Cell lysate absorbance at 340 nm was measured using a spectrophotometer. The absorbance value is directly proportional to melanin content.

melanocyte = melanocyte cytotoxicity; format: cell-based; details: human melanocytes
Method: as §1

Structure (SMILES) | Percentage of tyrosinase activity (tyrosinase; 0.1 mM) | Percentage of tyrosinase activity (tyrosinase; 1 mM) | Percentage of water solubility compared to the samples dissolved in DMSO [1] [%] | melanin content (human melanocytes; 0.33 mM) [%] | highest possible concentration taking into account the melanocyte cytotoxicity value (melanocyte) [mM] | water solubility (in words) [1] | melanin content (human melanocytes; 1.25 mM) [%]
O=C(/C=C/c1ccc(O)cc1)c1ccc(O)c(S(=O)(=O)[O-])c1.[Na+] [V M = Na, 5-[(E)-3-(p-hydroxyphenyl)acryloyl]-2-sodium Hydroxybenzenesulfonate] | >97% | 82 ± 3% | 100 |  |  |  | 
O=C(CCc1ccc(O)c(S(=O)(=O)[O-])c1)c1ccc(O)c(S(=O)(=O)[O-])c1.[K+].[K+] [VI M = K, 2-hydroxy-5-[2-(4-hydroxy-3-sulfonatebenzoyl)ethyl]-benzenesulfonate, Dipotassium Salt] | >97% | 91 ± 3% | 100 |  |  |  | 
O=C(/C=C/c1ccc(O)c(S(=O)(=O)[O-])c1)c1ccc(O)c(S(=O)(=O)[O-])c1.[K+].[K+] [IV M = K, 5-[(E)-2-(4-hydroxy-3-sulfonatebenzoyl)-1-ethenyl]-2-hydroxybenzenesulfonate, Dipotassium Salt] | >97% | 97 ± 1% | 100 |  |  |  | 
CCN(CC)CC.O=C(/C=C/c1ccc(O)cc1)c1ccc(O)c(S(=O)(=O)O)c1 [V M = (C2H5)3N, 5-[(E)-3-(p-hydroxyphenyl)acryloyl]-2-triethylammonium hydroxybenzenesulfonate] | >97% | 83 ± 0% | 100 |  |  |  | 
O=C(/C=C/c1ccc(O)cc1)c1ccc(O)c(S(=O)(=O)O)c1 [III, 5-[(E)-3-(p-hydroxyphenyl)acryloyl]-2-hydroxybenzenesulfonic Acid] | 82% and 82 ± 2% | 44% and 44 ± 1% | 84 | 49±7 | 0.33 | highly soluble | 
O=C(/C=C/c1ccc(O)c(S(=O)(=O)O)c1)c1ccc(O)c(S(=O)(=O)O)c1 [II, 5-[(E)-2-(4-hydroxy-3-sulfobenzoyl)-1-ethenyl]-2-hydroxybenzenesulfonic Acid] | 97% and 97 ± 0% | 55% and 55 ± 1% | 81 |  | 1.25 | highly soluble | 78±7
O=C(/C=C/c1ccc(O)cc1)c1ccc(O)cc1 [Reference molecule, (E)-1,3-bis(p-hydroxyphenyl)-2-propen-1-one, reference compound] | 97 ± 3% | 84 ± 4% | 0 |  |  | fully water soluble | 
